Laboratory results taken from ChEMBL document CHEMBL1131764, “Solid phase synthesis and biological activities of [Arg8]-vasopressin methylenedithioether” (1999).

How the values were obtained:
[1] = species: Rattus norvegicus; experiment: Vasopressor test using phonoxybenzamine treated male rats was determined; assay type: functional
[2] = species: Rattus norvegicus; experiment: In vitro biological activity in the absence of magnesium ions was determined in rats by Uterotonic test; assay type: functional
[3] = tested on: Rattus norvegicus; experiment: Antidiuretic test on conscious rats was determined; assay type: functional, Urine

| SMILES | Activity [1] [IU mg-1] | Activity [2] [IU mg-1] | Activity [3] [IU mg-1] |
| --- | --- | --- | --- |
| NC(=O)CC[C@@H]1NC(=O)[C@H](Cc2ccccc2)NC(=O)[C@H](Cc2ccc(O)cc2)NC(=O)[C@@H](N)CSCSC[C@@H](C(=O)N2CCC[C@H]2C(=O)N[C@@H](CCCN=C(N)N)C(=O)NCC(N)=O)NC(=O)[C@H](CC(N)=O)NC1=O | 55.3 | 1.4 | 46.5 |
| N=C(N)NCCC[C@H](NC(=O)[C@@H]1CCCN1C(=O)[C@@H]1CSSC[C@H](N)C(=O)N[C@@H](Cc2ccc(O)cc2)C(=O)N[C@@H](Cc2ccccc2)C(=O)N[C@@H](CCC(N)=O)C(=O)N[C@@H](CC(N)=O)C(=O)N1)C(=O)NCC(N)=O [VASOPRESSIN] | 412 | 17 | 465 |
